Literature values in patent US6972319B1, “Pituitary adenylate cyclase activating peptide (PACAP)receptor 3 (R3) agonists and their pharmacological methods of use” (priority 1999, dated 2005).

Biological target: T1, PACAP-R3 (Homo sapiens, UniProt P41587)
T1 sequence (P41587 24-438): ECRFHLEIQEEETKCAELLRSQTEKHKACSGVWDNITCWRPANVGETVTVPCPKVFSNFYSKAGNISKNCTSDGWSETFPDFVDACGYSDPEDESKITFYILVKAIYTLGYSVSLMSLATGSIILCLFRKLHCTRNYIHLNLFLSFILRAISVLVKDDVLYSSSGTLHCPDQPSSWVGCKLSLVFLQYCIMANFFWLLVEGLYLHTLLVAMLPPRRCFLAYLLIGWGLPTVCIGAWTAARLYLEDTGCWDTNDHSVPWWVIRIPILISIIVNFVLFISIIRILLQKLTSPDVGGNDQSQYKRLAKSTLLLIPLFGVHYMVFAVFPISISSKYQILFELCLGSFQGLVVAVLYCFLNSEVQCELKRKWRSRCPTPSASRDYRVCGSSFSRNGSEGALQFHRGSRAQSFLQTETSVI
Details: literature (Gourlet et al., Xia et al.); b170: over R1 and R2; cited from earlier work

## Helodermin
  PACAP-R3 selectivity: ~100 fold
